From ChEMBL document CHEMBL1159274, “Spiganthine, the cardioactive principle of Spigelia anthelmia” (J Nat Prod, 1995) come the findings set out here.

One may read the EC50 as the concentration needed to bring the measured effect to its halfway point. A lower EC50 goes with a more potent agent.

Assay [1] is described as follows: (§1) Induction of delay in contraction development in electrically-stimulated guinea pig heart ventricular papillary muscle at contraction frequency of 1 Hz. The format is functional, tissue-based. The note with it: Cavia porcellus, Muscle tissue.
The next assay is filed under the species Cavia porcellus. The description is as §1. The note with it: Muscle tissue. The format is functional, tissue-based.

In the case of `CC(C)[C@@]1(O)[C@@H](OC(=O)c2cc[nH]c2)[C@@]2(O)[C@]3(C)C[C@@]4(O)O[C@@]5([C@H](O)[C@@H](C)CC[C@]35O)[C@@]2(O)[C@@]41C` [RYANODINE], the minimal effective concentration in assay [1] (read-out: MEC) is 0.0165 µM.

Regarding `CC(C)[C@@]1(O)[C@@H](OC(=O)c2cc[nH]c2)[C@@]2(O)[C@@]3(CO)C[C@]4(O)O[C@@]5([C@H](O)[C@@H](C)CC[C@]35O)[C@@]2(O)[C@]14C` [SPIGANTHINE], the response in assay [1] was half-maximal at 60 nM (EC50). Besides, the Activity entry in the assay listed under Cavia porcellus is “Dose-dependent effect”.
